Assay results as given in ChEMBL document CHEMBL1150965, “Aculeoside B, a new bisdesmosidic spirostanol saponin from the underground parts of Ruscus aculeatus” (J Nat Prod, 1998).
In brackets after ≈: the same amount, converted by molar mass.

Test system: HL-60
Assay: Cytostatic activity against human HL60 cells after 72 hrs by MTT assay
Type: functional, cell-based
Conditions: HL-60, 72 h

IC50: 0.48 mg/L (≈ 0.476 µM)
Structure (SMILES): C=C1CO[C@@]2(O[C@H]3C[C@H]4[C@@H]5CC=C6C[C@@H](O)C[C@@H](O[C@@H]7OC[C@H](O)[C@H](O)[C@H]7O[C@@H]7O[C@@H](C)[C@H](OC(C)=O)[C@@H](OC(C)=O)[C@H]7OC(C)=O)[C@]6(C)[C@H]5CC[C@]4(C)[C@H]3[C@@H]2C)[C@@H](O)[C@H]1O[C@@H]1O[C@H](C)C(=O)[C@H](O)[C@H]1O [ACULEOSIDE A]
